No end group written: not given here.

Here are results for 15 substances from patent US6322789A, “HLA-restricted hepatitis B virus CTL epitopes” (Epimmune, Inc., priority 1995, dated 2001).

Assay [1] relates to Jurkat A2.1/K^b target cells. In words: CTL lysis after restimulation of splenocytes from mice primed with HBV-loaded spleen cells (Example I). It is filed as cell-based, A2.1/K^b transgenic mice (effector cells). Conditions: for representation of CTL epitopes: conclusion of Example I, FIGS. 1 and 2; for CTL lysis of Jurkat A2/K^b target cells: individual peptides, FIG. 1 panels E through H.

Assay [2] concerns Jurkat A2.1/K^b target cells. In words: CTL induction from splenocytes of mice primed subcutaneously with purified HBV in IFA (Example II). Type of assay: cell-based, A2.1/K^b transgenic mice (effector cells). Conditions: for ability to induce in vitro CTL from splenocytes of HBV-primed mice: FIGS. 3 and 4.
Assay [3] deals with Jurkat A2/K^b target cells. In words: In vivo HBc 18-27-specific CTL priming by CTL and T helper epitopes (Example IV). Details: species or system HLA-A2.1/K^b transgenic mice. Conditions: for magnitude of HBc18-27-specific CTL activity relative to other immunogens: comparison in words; for requirement of prior T helper priming for CTL priming: without previous priming with 875.23 in CFA; for HBc18-27-specific CTL response: 100 μg subcutaneously, transgenic mice. As for the experimental part: Animals were primed subcutaneously with 100 μg of 875.23 (T helper epitope) in Complete Freund's Adjuvant (CFA) followed 9 days later (subcutaneously) with […]. Splenocytes were removed 3 weeks later, cultured for 6 days in the presence of LPS-blasts that had been incubated with the CTL epitope (875.15), 100 μg for 2 hrs before being washed and added to the culture as a source of antigen presenting cells. The presence of HBc 18-27 (875.15)-specific CTL was determined using a standard 6 hr […] release assay with Jurkat A2.1/K^b cells as targets.
This example describes experiments which define the relative in vivo HBV-specific CTL priming efficiency of peptides expressing HBV CTL epitopes alone, CTL epitopes mixed with peptides containing T helper epitopes or CTL epitopes physically linked to T helper epitopes.
Nine days later each of the following peptides were injected subcutaneously into two unprimed and two helper-primed mice, 100 μg/mouse in incomplete Freund's adjuvant (IFA).
Three weeks after priming with the CTL epitope, splenocytes were in vitro restimulated with LPS blasts coated with HBc 18-27 (coating was achieved by incubating 30×10^6 LPS blasts with 100 μg of HBc18-27 in one ml of medium; after 1-2 hr at 37° C., the cells were washed). After 6 days, effector cells were assayed for lytic activity against ^51 Cr labelled Jurkat A2 /K^b target cells in the presence or absence of HBc18-27.

Assay [4] deals with Jurkat A2-1/Kb target cells; Jy target cells; Jy cells transfected with HBV core. On the set-up: species or system HLA-A2-1/kb transgenic mice. Conditions: mouse, in vivo, sc.
Assay [5] concerns B10.D2 fibroblasts in the presence of NP 148-155 peptide. The assay can be described thus: CTL immunogenicity of modifications and formulations of PR8-NP 148-155 (Table I). It is filed as in vivo, Balb/c mouse. Conditions: in words. As for the experimental part: Three weeks after immunization splenocytes were removed and stimulated in vitro with the flu 147-155 peptide. CTL activity was assayed one week later using ^51 Cr-labeled B10.D2 fibroblasts as targets. Target cells were tested in the absence of antigen, in the presence of Flu 147-155 peptide or following infection with influenza PR8 virus.
^b = CTL immunogenicity of various modifications and formulations of NP
result obtained from spleen cells derived from a single Balb/c mouse and
# the effector to target ratio (E:T) required to induce 40% antigen
specific lysis of ^51 Cr labeled B10D2 target cells in the presence of
ND148-155 peptide; +++ E:T below 10:1; ++ E + T between 10 + 1 and […]

A further assay has as its system ovalbumin-specific CTL. Conditions: cited from earlier work.
[6] abbreviates: listed as linked peptides without spacer.

For the substance “Thr-Asn-Met-Gly-Leu-Lys-Phe-Arg-Gln-Leu-Leu-Trp-Phe-His-Ile-Ser-Cys-Leu-Thr-Phe [Peptide 802.03]”, in assay [1], the “CTL response and its MHC class I mediation” value is “induces a CTL response which is mediated by at least the MHC class I molecule HLA-A2.1”; the “representation of CTL epitopes” value is on record as “defined as containing CTL epitopes”; the “CTL lysis of Jurkat A2/K^b target cells” value was “induced CTL lysis of Jurkat A2 /K^b target cells above background”. The “representation of CTL epitopes” value in assay [1] (listed as HBc 91-110) is reported as “clearly represent CTL epitopes”. For the same substance, in assay [2], the “ability to induce in vitro CTL from splenocytes of HBV-primed mice” value (from here on “ability to induce in vitro CTL”) is recorded as “clearly able to induce in vitro CTL”.

LSPTVWLSVI [Peptide 884.02]: in assay [2], the “recognition of truncation peptides by CTL raised against the larger peptide” value (“recognition of truncation peptides” for short) is given as “recognized by the CTL raised against the larger epitopes” and the “ability to induce in vitro CTL” value is listed as “clearly able to induce in vitro CTL”.

With “TPPAYRPPNAPILAAAFLPSDFFPSV-NH2 [Peptide 902.02]”, the “magnitude of HBc18-27-specific CTL activity relative to other immunogens” value in assay [3] is “greatest HBc18-27 (875.15)-specific CTL activity was detected”; in assay [3] (listed as T helper and CTL HBV peptides were linked by a Ala-Ala-Ala spacer), “specific CTL activity greater than induction of specific CTL activity with the linked peptides without spacer”; in assay [3] (listed as T helper and CTL epitopes via an alanine-alanine-alanine spacer), “specific CTL activity greater than that detected by linking the T helper and CTL determinants alone”. For the same substance, the “requirement of prior T helper priming for CTL priming” value in assay [3] is on record as “previous priming of helper T cells was not required”.

With “Ac-Gln-Tyr-Ile-Lys-Ala-Asn-Ser-Lys-Phe-Ile-Gly-Ile-Thr-Glu-Ala-Ala-Ala-Phe-Leu-Pro-Ser-Asp-Phe-Phe-Pro-Ser-Val-OH (Ac-QYIKANSKFIGITEAAAFLPSDFFPSV-OH) [Peptide 934.02]”, the “CTL response specific for HBc 18-27” value in assay [4] is reported as “induction of a CTL response specific for HBc 18-27”.

With LSPTVWLSVIWMMWYWGPSL [Peptide 799.10], in assay [1], the “representation of CTL epitopes” value was “defined as containing CTL epitopes” and the “CTL lysis of Jurkat A2/K^b target cells” value is “induced CTL lysis of Jurkat A2 /K^b target cells above background”. Also, the “representation of CTL epitopes” value in assay [1] (listed as HBenv 349-368) was “clearly represent CTL epitopes”. Moreover, in assay [2], the “ability to induce in vitro CTL” value is on record as “clearly able to induce in vitro CTL”.

As to “TPPAYRPPNAPILFLPSDFFPSV-NH2 [Peptide 902.01]”, in assay [3], the “HBc18-27-specific CTL response” value is “HBc-specific (875.15) CTL activity was detected” and the “requirement of prior T helper priming for CTL priming” value is “previous priming of helper T cells was not required”. Further, in assay [3] (setting [6]), the “HBc18-27-specific CTL response” value is “induce specific CTL priming of animals in all animals studied”; the “magnitude of HBc18-27-specific CTL activity relative to other immunogens” value is “at levels which were greater than when the CTL peptide and T helper peptide were administered unlinked”. In addition, in assay [3] (100 μg/mouse in IFA subcutaneously), the “animals with HBc18-27-specific CTL response” value was 100%. Moreover, the “magnitude of HBc18-27-specific CTL activity relative to other immunogens” value in assay [3] (listed as T helper epitope linked to the CTL epitope) was “greater than that detected when the epitopes were administered non-linked”.

Consider “Thr-Pro-Pro-Ala-Tyr-Arg-Pro-Pro-Asn-Ala-Pro-Ile-Leu (TPPAYRPPNAPIL) [Peptide 875.23]”, for which the “HBc18-27-specific CTL response” value in assay [3] is reported as “no HBc18-27-specific CTL response is detected”; in assay [3] (listed as T helper peptide), “did not induce HBc-specific CTL”.

Turning to “Asn-Cys-Thr-Cys-Ile-Pro-Ile-Pro-Ser-Ser-Trp-Ala-Phe-Gly-Lys-Phe-Leu-Trp-Glu-Trp [Peptide 799.08]”, in assay [1], the “CTL response and its MHC class I mediation” value was “induces a CTL response which is mediated by at least the MHC class I molecule HLA-A2”; the “representation of CTL epitopes” value was “clearly represent CTL epitopes”; the “CTL lysis of Jurkat A2/K^b target cells” value is recorded as “induced CTL lysis of Jurkat A2 /K^b target cells above background”.

Turning to “ISQAVHAAHAEINE-TYQRTRALV (ISQAVHAAHAEINETYQRTRALV) [Peptide 932.02]”, the “comparison of constructs and formulations” value (“comparison” for short) in assay [5] was “superior to mixing the T helper+CTL (i.e., non-linked) and worked well in IFA, but not well in saline or Alum”.

As to MGLKFRQLLW [Peptide 883.03], in assay [2], the “recognition of truncation peptides” value was “recognized by the CTL raised against the larger epitopes” and the “ability to induce in vitro CTL” value is given as “clearly able to induce in vitro CTL”.

Consider “ISQAVHAAHAEINE-AAA-TYQRTRALV (ISQAVHAAHAEINEAAATYQRTRALV) [Peptide 932.03]”, for which, in assay [5], the “comparison” value is “superior to mixing the T helper+CTL (i.e., non-linked) and worked well in IFA, but not well in saline or Alum”.

Regarding “(PAM)2 KSSISQAVHAAHAEINE-TYQRTRALV ({(PAM)2}-KSSISQAVHAAHAEINETYQRTRALV) [Peptide 932.04]”, the “comparison” value in assay [5] is recorded as “superior when injected in saline or Alum compared to all of the other combinations”.

Turning to ovalbumin: ovalbumin (OVA) in IFA, the “generation of CTL” value with ovalbumin-specific CTL (i.v. or i.p.) is recorded as “generally does not lead to the generation of CTL”. For the same substance, the “ovalbumin-specific CTL response” value with ovalbumin-specific CTL (in IFA subcutaneously) is listed as “induces an ovalbumin-specific CTL response in mice”.

For NMGLKFRQLL [Peptide 883.02], in assay [2], the “recognition of truncation peptides” value is given as “recognized by the CTL raised against the larger epitopes” and the “ability to induce in vitro CTL” value is recorded as “clearly able to induce in vitro CTL”.

With “(PAM)2 KSS-ISQAVHAAHAEINE-AAA-TYQRTRALV ({(PAM)2}-KSSISQAVHAAHAEINEAAATYQRTRALV) [Peptide 932.05]”, the “comparison” value in assay [5] is on record as “superior when injected in saline or Alum compared to all of the other combinations”.
